These compounds were tested against T1, human capsaicin receptor (Homo sapiens, UniProt Q8NER1) (assay: Calcium mobilization assay, determination of antagonist activity (Example 6)). Conditions: Table II; determined as described in Example 6 (antagonist activity); "*" = 1 micromolar or less.
T1 construct: pBK-CMV expression construct encoding the full length human capsaicin receptor; expressed in transfected cells
Assay type: cell-based
Procedure, shortened: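 HEK293 clonal lines stably expressing full-length human capsaicin receptor, loaded with Fluo-3 AM in KRH buffer pH 7.4, 1–2 h at 37 °C. Compounds (1–5 μM final) preincubated 0.5–6 h at room temperature, then capsaicin at its EC50 added. FLIPR/Fluoroskan calcium signal; IC50 as 50% decrease of capsaicin response.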

T1 sequence (Q8NER1 whole entry): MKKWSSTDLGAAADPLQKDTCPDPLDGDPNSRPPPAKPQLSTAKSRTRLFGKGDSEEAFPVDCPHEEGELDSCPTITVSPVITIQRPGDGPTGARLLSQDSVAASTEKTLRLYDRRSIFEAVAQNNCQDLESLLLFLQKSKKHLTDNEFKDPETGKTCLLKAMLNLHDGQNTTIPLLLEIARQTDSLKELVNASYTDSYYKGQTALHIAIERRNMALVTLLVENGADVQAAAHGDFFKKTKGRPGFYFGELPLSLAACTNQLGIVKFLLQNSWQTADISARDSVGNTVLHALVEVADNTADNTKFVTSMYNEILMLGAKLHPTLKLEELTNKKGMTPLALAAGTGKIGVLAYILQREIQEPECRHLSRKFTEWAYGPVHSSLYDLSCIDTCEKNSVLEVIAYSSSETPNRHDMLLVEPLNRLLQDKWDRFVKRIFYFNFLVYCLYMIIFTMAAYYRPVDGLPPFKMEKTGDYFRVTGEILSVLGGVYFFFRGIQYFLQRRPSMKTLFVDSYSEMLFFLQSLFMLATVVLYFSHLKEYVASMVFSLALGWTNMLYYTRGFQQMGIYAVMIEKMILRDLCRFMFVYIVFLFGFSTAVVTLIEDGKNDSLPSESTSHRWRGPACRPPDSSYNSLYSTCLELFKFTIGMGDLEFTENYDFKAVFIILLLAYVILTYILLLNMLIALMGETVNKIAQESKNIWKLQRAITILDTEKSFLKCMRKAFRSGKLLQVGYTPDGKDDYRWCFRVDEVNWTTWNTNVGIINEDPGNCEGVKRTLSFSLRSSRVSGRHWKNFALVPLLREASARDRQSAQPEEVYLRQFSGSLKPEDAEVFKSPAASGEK

| IC50 [nM] | Structure (SMILES) |
| --- | --- |
| ≤ 1000 | CCOC(=O)C1CCN(c2nc(-c3ccc(F)c(Cl)c3)cc(N3CCN(c4ncccc4C(F)(F)F)CC3)n2)CC1 [Example 797, ethyl 1-(4-(3-chloro-4-fluorophenyl)-6-{4-[3-(trifluoromethyl)pyridin-2-yl]piperazin-1-yl}pyrimidin-2-yl)piperidine-4-carboxylate] |
| ≤ 1000 | CCOC(=O)C1CCCN(c2nc(-c3ccc(F)c(Cl)c3)cc(N3CCN(c4ncccc4C(F)(F)F)CC3)n2)C1 (stereo not drawn) [Example 798, ethyl 1-(4-(3-chloro-4-fluorophenyl)-6-{4-[3-(trifluoromethyl)pyridin-2-yl]piperazin-1-yl}pyrimidin-2-yl)piperidine-3-carboxylate] |
| ≤ 1000 | O=C(O)C1CCN(c2nc(-c3ccc(F)c(Cl)c3)cc(N3CCN(c4ncccc4C(F)(F)F)CC3)n2)CC1 [Example 799, 1-(4-(3-chloro-4-fluorophenyl)-6-{4-[3-(trifluoromethyl)pyridin-2-yl]piperazin-1-yl}pyrimidin-2-yl)piperidine-4-carboxylic acid] |
| ≤ 1000 | O=C(O)C1CCCN(c2nc(-c3ccc(F)c(Cl)c3)cc(N3CCN(c4ncccc4C(F)(F)F)CC3)n2)C1 (stereo not drawn) [Example 800, 1-(4-(3-chloro-4-fluorophenyl)-6-{4-[3-(trifluoromethyl)pyridin-2-yl]piperazin-1-yl}pyrimidin-2-yl)piperidine-3-carboxylic acid] |
| ≤ 1000 | CC1=NCCN1c1nc(-c2ccc(F)c(Cl)c2)cc(N2CCN(c3ncccc3C(F)(F)F)CC2)n1 [Example 801, 4-(3-chloro-4-fluorophenyl)-2-(2-methyl-4,5-dihydro-1H-imidazol-1-yl)-6-{4-[3-(trifluoromethyl)pyridin-2-yl]piperazin-1-yl}pyrimidine] |
| ≤ 1000 | Cc1ccc(-c2cc(N3CCN(c4ncccc4Cl)C[C@H]3C)nc(N3CCCC3)n2)cc1F [Example 802] |
| ≤ 1000 | Cc1ccc(-c2cc(N3CCN(c4ncccc4Cl)C[C@H]3C)nc(N3CCCC3C)n2)cc1F (stereo partly drawn) [Example 803, 4-[(2R)-4-(3-chloropyridin-2-yl)-2-methylpiperazin-1-yl]-6-(3-fluoro-4-methylphenyl)-2-(2-methylpyrrolidin-1-yl)pyrimidine] |
| ≤ 1000 | Cc1ccc(-c2cc(N3CCN(c4ncccc4Cl)C[C@H]3C)nc(N3CCCCC3)n2)cc1F [Example 804, 4-[(2R)-4-(3-chloropyridin-2-yl)-2-methylpiperazin-1-yl]-6-(3-fluoro-4-methylphenyl)-2-piperidin-1-ylpyrimidine] |
| ≤ 1000 | Cc1ccc(-c2cc(N3CCN(c4ncccc4Cl)C[C@H]3C)nc(N3CCCC3)n2)cc1C [Example 805, 4-[(2R)-4-(3-chloropyridin-2-yl)-2-methylpiperazin-1-yl]-6-(3,4-dimethylphenyl)-2-pyrrolidin-1-ylpyrimidine] |
| ≤ 1000 | C[C@@H]1CN(c2ncccc2Cl)CCN1c1cc(-c2cncc(Cl)c2)nc(N2CCCC2)n1 [Example 806, 4-(5-chloropyridin-3-yl)-6-[(2R)-4-(3-chloropyridin-2-yl)-2-methylpiperazin-1-yl]-2-pyrrolidin-1-ylpyrimidine] |
| ≤ 1000 | CC1CCCN1c1nc(-c2cncc(Cl)c2)cc(N2CCN(c3ncccc3Cl)C[C@H]2C)n1 (stereo partly drawn) [Example 807] |
| ≤ 1000 | Cc1ccc(-c2cc(N3CCN(c4ncccc4Cl)C[C@H]3C)nc(N3CCCC3C)n2)cc1C (stereo partly drawn) [Example 808, 4-[(2R)-4-(3-chloropyridin-2-yl)-2-methylpiperazin-1-yl]-6-(3,4-dimethylphenyl)-2-(2-methylpyrrolidin-1-yl)pyrimidine] |
| ≤ 1000 | COc1ccc(-c2cc(N3CCN(c4ncccc4Cl)C[C@H]3C)nc(N3CCCC3)n2)cc1C [Example 809, 4-[(2R)-4-(3-chloropyridin-2-yl)-2-methylpiperazin-1-yl]-6-(4-methoxy-3-methylphenyl)-2-pyrrolidin-1-ylpyrimidine] |
| ≤ 1000 | COc1ccc(-c2cc(N3CCN(c4ncccc4Cl)C[C@H]3C)nc(N3CCCC3C)n2)cc1C (stereo partly drawn) [Example 810, 4-[(2R)-4-(3-chloropyridin-2-yl)-2-methylpiperazin-1-yl]-6-(4-methoxy-3-methylphenyl)-2-(2-methylpyrrolidin-1-yl)pyrimidine] |
| ≤ 1000 | CC(C)N(C)C1CN(c2nc(-c3ccc(F)c(Cl)c3)cc(N3CCN(c4ncccc4C(F)(F)F)CC3)n2)C1 [Example 811, 1-(4-(3-chloro-4-fluorophenyl)-6-{4-[3-(trifluoromethyl)pyridin-2-yl]piperazin-1-yl}pyrimidin-2-yl)-N-isopropyl-N-methylazetidin-3-amine] |
| ≤ 1000 | CCOC(=O)CN(C)c1nc(-c2ccc(F)c(Cl)c2)cc(N2CCN(c3ncccc3C(F)(F)F)CC2)n1 [Example 812, ethyl N-(4-(3-chloro-4-fluorophenyl)-6-{4-[3-(trifluoromethyl)pyridin-2-yl]piperazin-1-yl}pyrimidin-2-yl)-N-methylglycinate] |
| ≤ 1000 | [O-][n+]1ccc(-c2nc(-c3ccc(F)c(Cl)c3)cc(N3CCN(c4ncccc4C(F)(F)F)CC3)n2)cc1 [Example 813, 4-(3-chloro-4-fluorophenyl)-2-(1-oxidopyridin-4-yl)-6-{4-[3-(trifluoromethyl)pyridin-2-yl]piperazin-1-nlyl}pyrimidine] |
| ≤ 1000 | Cc1cc(N)cnc1N1CCN(c2cc(-c3ccc(F)c(Cl)c3)nc(N3CCCC3C)n2)CC1 (stereo not drawn) [Example 814, 6-{4-[6-(3-chloro-4-fluorophenyl)-2-(2-methylpyrrolidin-1-yl)pyrimidin-4-yl]piperazin-1-yl}-5-methylpyridin-3-amine] |
| ≤ 1000 | Cc1cc(O)cnc1N1CCN(c2cc(-c3ccc(F)c(Cl)c3)nc(N3CCCC3C)n2)CC1 (stereo not drawn) [Example 815, 6-{4-[6-(3-chloro-4-fluorophenyl)-2-(2-methylpyrrolidin-1-yl)pyrimidin-4-yl]piperazin-1-yl}-5-methylpyridin-3-ol] |
| ≤ 1000 | CC(=O)Nc1cnc(N2CCN(c3cc(-c4ccc(F)c(Cl)c4)nc(N4CCCC4C)n3)CC2)c(C)c1 (stereo not drawn) [Example 816, N-(6-{4-[6-(3-chloro-4-fluorophenyl)-2-(2-methylpyrrolidin-1-yl)pyrimidin-4-yl]piperazin-1-yl}-5-methylpyridin-3-yl)acetamide] |
| ≤ 1000 | Cc1cc(NS(C)(=O)=O)cnc1N1CCN(c2cc(-c3ccc(F)c(Cl)c3)nc(N3CCCC3C)n2)CC1 (stereo not drawn) [Example 817, N-(6-{4-[6-(3-chloro-4-fluorophenyl)-2-(2-methylpyrrolidin-1-yl)pyrimidin-4-yl]piperazin-1-yl}-5-methylpyridin-3-yl)methanesulfonamide] |
| ≤ 1000 | COc1cnc(N2CCN(c3cc(-c4ccc(F)c(Cl)c4)nc(N4CCCC4C)n3)CC2)c(C)c1 (stereo not drawn) [Example 818, 4-(3-chloro-4-fluorophenyl)-6-[4-(5-methoxy-3-methylpyridin-2-yl)piperazin-1-yl]-2-(2-methylpyrrolidin-1-yl)pyrimidine] |
| ≤ 1000 | CCCN1CCN(c2nc(-c3ccc(F)c(Cl)c3)cc(N3CCN(c4ncc(N)cc4C)CC3)n2)CC1 [Example 819, 6-{4-[6-(3-chloro-4-fluorophenyl)-2-(4-propylpiperazin-1-yl)pyrimidin-4-yl]piperazin-1-yl}-5-methylpyridin-3-amine] |
| ≤ 1000 | C[C@@H]1CN(c2nccnc2Cl)CCN1c1cc(-c2ccc(F)c(F)c2)nc(N2CCCC2)n1 [Example 820, 4-[(2R)-4-(3-chloropyrazin-2-yl)-2-methylpiperazin-1-yl]-6-(3,4-difluorophenyl)-2-pyrrolidin-1-ylpyrimidine] |

— patent US7566712B2, “Biaryl piperazinyl-pyridine analogues” (Neurogen Corporation, priority 2003, dated 2009)
